In ChEMBL document CHEMBL1201862, “PubChem BioAssay data set” (2004):
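1) Cells in 96-well plates. 2) Compound, 48 h, 5 concentrations. 3) Linear interpolation between surrounding doses. 4) Unreached endpoint = highest concentration. GI50: concentration for 50% inhibition of growth.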 Active and inactive are the calls of the source. Cut-off read from the data, not from the text of the source: active = GI50 up to about 1.1 µM and inactive = higher. Where a SMILES comes first, the peptide text is derived from it. [ ]: non-standard residue; d: D form. The star is where a group is joined. ξ: configuration not given here. ξD = NC(CC(=O)O)C(=O)O; Boc = CC(C)(C)OC(=O)*; Aib = CC(C)(N)C(=O)O; OBn = c1ccc(CO*)cc1

Experiments:
Test in all cases: NCI anticancer screen, dose series, 48 h
IGROV-1 = test system: IGROV-1
UO-31 = test system: UO-31
COLO 205 = test system: COLO 205
PC-3 = test system: PC-3
RXF 393 = test system: RXF 393
CCRF-CEM = test system: CCRF-CEM
NCI-H23 = test system: NCI-H23
TK-10 = test system: TK-10
U-251 = test system: U-251
SN12C = test system: SN12C
UACC-257 = test system: UACC-257
SK-MEL-28 = test system: SK-MEL-28
ACHN = test system: ACHN
SK-MEL-5 = test system: SK-MEL-5
HCT-116 = test system: HCT-116
KM12 = test system: KM12
HT-29 = test system: HT-29
HCC 2998 = test system: HCC 2998
OVCAR-5 = test system: OVCAR-5
SK-OV-3 = test system: SK-OV-3
UACC-62 = test system: UACC-62
MOLT-4 = test system: MOLT-4
SNB-75 = test system: SNB-75
MDA-N = test system: MDA-N
Hs-578T = test system: Hs-578T
SW-620 = test system: SW-620
T47D = test system: T47D
SF-268 = test system: SF-268
SF-295 = test system: SF-295
HCT-15 = test system: HCT-15
NCI/ADR-RES = test system: NCI/ADR-RES
786-0 = test system: 786-0
OVCAR-4 = test system: OVCAR-4
K562 = test system: K562
NCI-H522 = test system: NCI-H522
A498 = test system: A498
Malme-3M = test system: Malme-3M
MDA-MB-231 = test system: MDA-MB-231
SF-539 = test system: SF-539
HL-60 = test system: HL-60
LOX IMVI = test system: LOX IMVI
BT-549 = test system: BT-549
MDA-MB-435 = test system: MDA-MB-435
DU-145 = test system: DU-145
CAKI-1 = test system: CAKI-1
M14 = test system: M14
SNB-19 = test system: SNB-19
MCF7 = test system: MCF7
EKVX = test system: EKVX
OVCAR-3 = test system: OVCAR-3
SK-MEL-2 = test system: SK-MEL-2
OVCAR-8 = test system: OVCAR-8
HOP-92 = test system: HOP-92
NCI-H460 = test system: NCI-H460
HOP-62 = test system: HOP-62
A549 = test system: A549
NCI-H226 = test system: NCI-H226
RPMI-8226 = test system: RPMI-8226

**Q.** What does the source list for CCOC(=O)c1c[nH]cc1-c1cn(S(=O)(=O)c2ccccc2)cc1C?
**A.** GI50 (IGROV-1): 26.9 µM (inactive); GI50 (UO-31): 27.5 µM (inactive); GI50 (COLO 205): 20.1 µM (inactive); GI50 (PC-3): 18.6 µM (inactive); GI50 (RXF 393): 47.1 µM (inactive); GI50 (CCRF-CEM): 24.9 µM (inactive); GI50 (NCI-H23): 24.6 µM (inactive); GI50 (TK-10): 35.6 µM (inactive); GI50 (U-251): 25.6 µM (inactive); GI50 (SN12C): 25.2 µM (inactive); GI50 (UACC-257): 17.1 µM (inactive); GI50 (SK-MEL-28): 19.8 µM (inactive); GI50 (ACHN): 18.9 µM (inactive); GI50 (SK-MEL-5): > 10 µM (inactive); GI50 (HCT-116): 21.6 µM (inactive); GI50 (KM12): 19.6 µM (inactive); GI50 (HT-29): 21.2 µM (inactive); GI50 (HCC 2998): 17.5 µM (inactive); GI50 (OVCAR-5): 52.7 µM (inactive); GI50 (SK-OV-3): 25.9 µM (inactive); GI50 (UACC-62): 15.3 µM (inactive); GI50 (MOLT-4): 20.4 µM (inactive); GI50 (SNB-75): 15.3 µM (inactive); GI50 (MDA-N): 17.9 µM (inactive); GI50 (Hs-578T): 11.9 µM (inactive); GI50 (SW-620): > 10 µM (inactive); GI50 (T47D): 18.2 µM (inactive); GI50 (SF-268): 25.9 µM (inactive); GI50 (SF-295): 33.7 µM (inactive); GI50 (HCT-15): 22.9 µM; GI50 (NCI/ADR-RES): 22.2 µM (inactive); GI50 (786-0): 37.1 µM (inactive); GI50 (OVCAR-4): 39.4 µM (inactive); GI50 (K562): 19.1 µM (inactive); GI50 (NCI-H522): 15.6 µM (inactive); GI50 (A498): > 10 µM (inactive); GI50 (Malme-3M): 15 µM (inactive); GI50 (MDA-MB-231): 20.5 µM (inactive); GI50 (SF-539): 21.9 µM (inactive); GI50 (HL-60): 26.2 µM (inactive); GI50 (LOX IMVI): 23.4 µM (inactive); GI50 (BT-549): 27.1 µM (inactive); GI50 (MDA-MB-435): > 10 µM (inactive); GI50 (DU-145): 50.7 µM (inactive); GI50 (CAKI-1): 17.7 µM (inactive); GI50 (M14): 21.7 µM (inactive); GI50 (SNB-19): 31.8 µM (inactive); GI50 (MCF7): 29 µM (inactive); GI50 (EKVX): 14.6 µM (inactive); GI50 (OVCAR-3): 18.8 µM (inactive); GI50 (SK-MEL-2): 32.2 µM (inactive); GI50 (OVCAR-8): 28.7 µM (inactive); GI50 (HOP-92): 26 µM (inactive); GI50 (NCI-H460): 18.4 µM (inactive); GI50 (HOP-62): 31.5 µM (inactive); GI50 (A549): 30.5 µM (inactive)

**Q.** Which GI50 (IGROV-1) does the source give for CC(C)(C)OC(=O)NC(CC(=O)OCc1ccccc1)C(=O)NC(C)(C)C(N)=O (configuration not stated) (Boc-[ξD](OBn)-[Aib]-NH2) here?
**A.** > 100 µM (inactive)

**Q.** And the GI50 (UO-31)?
**A.** > 100 µM (inactive)

**Q.** And the GI50 (COLO 205)?
**A.** > 100 µM (inactive)

**Q.** And the GI50 (PC-3)?
**A.** > 100 µM (inactive)

**Q.** What about the GI50 (RXF 393) of the same compound?
**A.** > 100 µM (inactive)

**Q.** And the GI50 (CCRF-CEM)?
**A.** > 100 µM (inactive)

**Q.** And the GI50 (NCI-H23)?
**A.** > 100 µM (inactive)

**Q.** What about the GI50 (TK-10) of the same compound?
**A.** > 100 µM (inactive)

**Q.** And the GI50 (U-251)?
**A.** > 100 µM (inactive)

**Q.** And the GI50 (SN12C)?
**A.** > 100 µM (inactive)

**Q.** What about the GI50 (UACC-257) of the same compound?
**A.** > 100 µM (inactive)

**Q.** And the GI50 (SK-MEL-28)?
**A.** > 100 µM (inactive)

**Q.** What about the GI50 (ACHN) of the same compound?
**A.** > 100 µM (inactive)

**Q.** And the GI50 (SK-MEL-5)?
**A.** > 100 µM (inactive)

**Q.** What about the GI50 (HCT-116) of the same compound?
**A.** > 100 µM (inactive)

**Q.** What about the GI50 (KM12) of the same compound?
**A.** > 100 µM (inactive)

**Q.** And the GI50 (HT-29)?
**A.** > 100 µM (inactive)

**Q.** What about the GI50 (OVCAR-5) of the same compound?
**A.** > 100 µM (inactive)

**Q.** And the GI50 (NCI-H226)?
**A.** > 100 µM (inactive)

**Q.** What about the GI50 (SK-OV-3) of the same compound?
**A.** > 100 µM (inactive)

**Q.** What about the GI50 (UACC-62) of the same compound?
**A.** 0.0204 µM (active)

**Q.** What about the GI50 (MOLT-4) of the same compound?
**A.** > 100 µM (inactive)

**Q.** And the GI50 (SNB-75)?
**A.** > 100 µM (inactive)

**Q.** And the GI50 (MDA-N)?
**A.** > 100 µM (inactive)

**Q.** What about the GI50 (Hs-578T) of the same compound?
**A.** > 100 µM (inactive)

**Q.** And the GI50 (RPMI-8226)?
**A.** > 100 µM (inactive)

**Q.** And the GI50 (SW-620)?
**A.** > 100 µM (inactive)

**Q.** And the GI50 (T47D)?
**A.** > 100 µM (inactive)

**Q.** And the GI50 (SF-268)?
**A.** > 100 µM (inactive)

**Q.** And the GI50 (SF-295)?
**A.** > 100 µM (inactive)

**Q.** What about the GI50 (HCT-15) of the same compound?
**A.** > 100 µM

**Q.** And the GI50 (NCI/ADR-RES)?
**A.** > 100 µM (inactive)

**Q.** And the GI50 (786-0)?
**A.** > 100 µM (inactive)

**Q.** What about the GI50 (OVCAR-4) of the same compound?
**A.** > 100 µM (inactive)

**Q.** What about the GI50 (K562) of the same compound?
**A.** > 100 µM (inactive)

**Q.** What about the GI50 (NCI-H522) of the same compound?
**A.** > 100 µM (inactive)

**Q.** What about the GI50 (A498) of the same compound?
**A.** > 100 µM (inactive)

**Q.** What about the GI50 (Malme-3M) of the same compound?
**A.** > 100 µM (inactive)

**Q.** What about the GI50 (MDA-MB-231) of the same compound?
**A.** > 100 µM (inactive)

**Q.** What about the GI50 (SF-539) of the same compound?
**A.** > 100 µM (inactive)

**Q.** And the GI50 (LOX IMVI)?
**A.** > 100 µM (inactive)

**Q.** What about the GI50 (BT-549) of the same compound?
**A.** > 100 µM (inactive)

**Q.** And the GI50 (MDA-MB-435)?
**A.** > 100 µM (inactive)

**Q.** And the GI50 (DU-145)?
**A.** > 100 µM (inactive)

**Q.** And the GI50 (CAKI-1)?
**A.** > 100 µM (inactive)

**Q.** What about the GI50 (M14) of the same compound?
**A.** > 100 µM (inactive)

**Q.** And the GI50 (SNB-19)?
**A.** > 100 µM (inactive)

**Q.** What about the GI50 (MCF7) of the same compound?
**A.** > 100 µM (inactive)

**Q.** What about the GI50 (EKVX) of the same compound?
**A.** > 100 µM (inactive)

**Q.** What about the GI50 (OVCAR-3) of the same compound?
**A.** > 100 µM (inactive)

**Q.** And the GI50 (SK-MEL-2)?
**A.** > 100 µM (inactive)

**Q.** And the GI50 (OVCAR-8)?
**A.** > 100 µM (inactive)

**Q.** What about the GI50 (HOP-92) of the same compound?
**A.** > 100 µM (inactive)

**Q.** And the GI50 (NCI-H460)?
**A.** > 100 µM (inactive)

**Q.** What about the GI50 (HOP-62) of the same compound?
**A.** > 100 µM (inactive)

**Q.** What about the GI50 (A549) of the same compound?
**A.** > 100 µM (inactive)
